Measurements taken from PubChem BioAssay (NCI).
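All cell lines were grown in 96-well plates and treated with compound for 48 hours. At the TGI there is no net growth.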

Tests used:
Assay in all cases: inhibition of tumour cell growth, NCI panel, 48 h
[1] = test system: DLD-1 colon
[2] = test system: DMS 114 small cell lung
[3] = test system: DMS 273 small cell lung
[4] = test system: EKVX NSCLC
[5] = test system: HCC-2998 colon
[6] = test system: HOP-18 NSCLC
[7] = test system: HOP-62 NSCLC
[8] = test system: IGROV1 ovarian
[9] = test system: KM12 colon
[10] = test system: KM20L2 colon
[11] = test system: M19-MEL melanoma
[12] = test system: MCF7 breast
[13] = test system: NCI/ADR-RES ovarian
[14] = test system: RXF 393 renal
[15] = test system: SNB-78 CNS
[16] = test system: UACC-257 melanoma
[17] = test system: XF 498 CNS
[18] = test system: LXFL 529 NSCLC
[19] = test system: SR leukemia
[20] = test system: PC-3 prostate

SMILES | TGI [1] | TGI [2] | TGI [3] | TGI [4] | TGI [5] | TGI [6] | TGI [7] | TGI [8] | TGI [9] | TGI [10] | TGI [11] | TGI [12] | TGI [13] | TGI [14] | TGI [15] | TGI [16] | TGI [17] | TGI [18] | TGI [19] | TGI [20]
COc1ccccc1Cc1nc(-c2ccccc2)nn(C2OC(COC(C)=O)C(OC(C)=O)C(OC(C)=O)C2OC(C)=O)c1=S (configuration not stated) | > 100 µM | > 100 µM | > 79.6 µM | > 86.4 µM | > 43.2 µM | 97.7 µM | 38.3 µM | > 93.9 µM | > 100 µM | > 100 µM | > 100 µM | 33.9 µM | > 100 µM | 31.9 µM | > 70.1 µM | > 100 µM | 6.49 µM |  |  | 
COc1cc2c(cc1OC)C(Cl)C(c1ccc(Cl)c(Cl)c1)=C2Cl (configuration not stated) |  | 15.9 µM | 14.7 µM | 44.7 µM |  | 37 µM |  | 28.9 µM |  | 25.7 µM | 32.2 µM |  |  |  | 33.7 µM |  |  | 17.2 µM |  | 
COc1cc(C(C)c2cc3c(cc2OCCO)OCO3)cc(OC)c1OC (configuration not stated) | > 100 µM | 3.77 µM | > 100 µM | > 100 µM | > 100 µM | > 100 µM | > 100 µM | > 100 µM |  |  | > 100 µM |  |  | 3.43 µM | > 100 µM | > 100 µM | 5.33 µM | > 100 µM | 0.932 µM | 
Cc1nc2c(sc(=S)n2-c2ccccc2)c(=O)[nH]1 | > 100 µM |  |  |  | > 100 µM | > 100 µM | > 100 µM | > 100 µM | > 100 µM |  |  |  |  |  |  | > 100 µM |  | > 100 µM | > 100 µM | 
Cc1cn(Cc2cnnn2CC2OC(n3cc(C)c(=O)[nH]c3=O)CC2O)c(=O)[nH]c1=O (configuration not stated) |  |  |  | > 100 µM | > 100 µM |  | > 100 µM | > 100 µM | > 100 µM |  |  | > 100 µM | > 100 µM | > 100 µM |  | > 100 µM |  |  |  | > 100 µM
COc1cc2cc[n+]3c(C)c4cc(OC)c(OC)cc4c([O-])c3c2cc1OC | > 100 µM | 62.1 µM | > 100 µM | > 100 µM | > 100 µM |  | > 100 µM | 72.8 µM | > 100 µM | > 100 µM | > 100 µM |  |  | 89.9 µM | > 100 µM | > 100 µM | 82.1 µM | > 100 µM | > 100 µM | 
NCCCN(CCCN)CCN(CCN(CCCN)CCCN)CCN(CCCN)CCCN |  |  |  |  | > 100 µM |  | > 100 µM | > 100 µM |  |  |  | > 100 µM | > 100 µM |  |  | > 100 µM |  |  | > 100 µM | > 100 µM
COc1ccc(C2N(NC(=O)c3ccncc3)C(=O)CS2(=O)=O)cc1F (configuration not stated) | > 100 µM | > 100 µM | > 100 µM |  | > 100 µM | > 100 µM | > 100 µM |  | > 100 µM |  |  |  |  | > 100 µM | > 100 µM | > 100 µM | > 100 µM | > 100 µM | > 100 µM | 
